Reference: patent publication US6413978B1, “Basic derivatives of benz[e] isoindol-1-ones and pyrrolo[3,4-c] quinolin-1-ones with 5-HT3-antagonistic activity, their preparation and their therapeutic use” (Rotta Research Laboratorium S.p.A., priority 1998, dated 2002)
Read-outs that look alike come from different tables or passages of the source.

What was measured:
5-HT1A receptors = target: T1, 5-HT1A receptors (Rattus norvegicus, UniProt P19327); assay: Affinity for the 5-HT1A receptors, [3H]-8-OH DPAT binding; conditions: for Ki ± SE, 5-HT1A Subtype ([3H]-8OH-DPAT): rat hippocampus, 10 min, 37° C., IN (10^−6M) where no Ki is given
T1 construct: from tissue; host or cells: rat hippocampus
T1 sequence (P19327 1-422): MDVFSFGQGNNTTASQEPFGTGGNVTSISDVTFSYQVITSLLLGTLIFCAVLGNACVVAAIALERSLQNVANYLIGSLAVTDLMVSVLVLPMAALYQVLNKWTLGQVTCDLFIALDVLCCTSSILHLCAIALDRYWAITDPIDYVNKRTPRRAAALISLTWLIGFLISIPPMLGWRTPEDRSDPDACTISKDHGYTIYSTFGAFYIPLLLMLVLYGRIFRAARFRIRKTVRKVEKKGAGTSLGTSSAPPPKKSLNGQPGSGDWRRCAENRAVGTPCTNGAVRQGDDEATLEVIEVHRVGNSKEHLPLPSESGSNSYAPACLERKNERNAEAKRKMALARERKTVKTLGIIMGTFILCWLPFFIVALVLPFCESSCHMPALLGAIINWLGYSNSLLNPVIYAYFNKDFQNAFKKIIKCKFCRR
Experimental: d) Affinity for the 5-HT1A Receptors
The method of Hall et al (J. Neurochem. 1985, 44, 1685-1696) was followed with slight modifications. Rat hippocampus was used to produce a pellet having a final concentration of 4 mg of tissue/sample. Specific activity of the tracer: 137 Ci/mmole; incubation time 10 min; incubation temperature: 37° C.

serotonin uptake site = target: T2, serotonin uptake site (Rattus norvegicus, UniProt P31652); assay: Affinity for the serotonin uptake site, [3H]-paroxetine binding
T2 construct: from tissue; host or cells: entire rat brain
Experimental: The method of Plenge et al (Eur. J. Pharmacol., 1990, 189, 129-134) was followed with slight modifications. The entire rat brain was used to produce a pellet having a final concentration of 2 mg of tissue/sample. Specific activity of the tracer: 29.7 Ci/mmole; incubation time: 60 min.; incubation temperature: 25° C.

5-HT3 receptors = target: T3, 5-HT3 receptors (Rattus norvegicus, UniProt P35563); assay: Affinity for the 5-HT3 receptors, [3H]-BRL43694 (Granisetron) binding
T3 construct: from tissue; host or cells: rat cortex and hippocampus
T3 sequence (P35563 24-483): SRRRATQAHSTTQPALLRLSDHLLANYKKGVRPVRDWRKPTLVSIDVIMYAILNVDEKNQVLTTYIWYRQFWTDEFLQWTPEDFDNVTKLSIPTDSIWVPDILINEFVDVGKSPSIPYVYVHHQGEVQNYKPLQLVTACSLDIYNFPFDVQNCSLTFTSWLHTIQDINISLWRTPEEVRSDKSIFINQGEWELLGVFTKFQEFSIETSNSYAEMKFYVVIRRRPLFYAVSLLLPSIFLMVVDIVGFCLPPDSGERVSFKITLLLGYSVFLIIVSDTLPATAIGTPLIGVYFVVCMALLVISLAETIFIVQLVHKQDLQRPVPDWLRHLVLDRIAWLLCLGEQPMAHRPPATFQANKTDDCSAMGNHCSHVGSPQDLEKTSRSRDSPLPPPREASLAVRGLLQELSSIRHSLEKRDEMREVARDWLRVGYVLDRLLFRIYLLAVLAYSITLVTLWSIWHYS
Experimental: a) Affinity for the 5-HT3 Receptors
The method of Nelson et al. (Biochem. Pharmacol. 1989, 38, 1693-95) was followed with slight modifications. Rat cortex and hippocampus were used to produce a pellet having a final concentration of 20 mg of tissue/sample. Specific activity of the tracer: 81 Ci/mmole; incubation time: 30 min; incubation temperature: 25° C.

5-HT2A Subtype = target: T4, 5-HT2A Subtype (Rattus norvegicus, UniProt P14842); assay: Affinity for the 5HT2 receptors, [3H]-ketanserine binding; conditions: for Ki: read-out: Ki ± SE, 5-HT2A Subtype ([3R]-ketanserine)
T4 construct: from tissue; host or cells: rat prefrontal cortex
Experimental: c) Affinity for the 5HT2 Receptors
The method of Leysen et al (Mol. Pharmacol. 1982, 21, 301-314) was followed with slight modifications. Rat prefrontal cortex was used to produce a pellet having a final concentration of 8 mg of tisssue/sample. Specific activity of the tracer: 80.9 Ci/mmole; incubation time: 20 min; incubation temperature: 37° C.

[1] = entire rat brain, 60 min, 25° C., read-out: Ki ± SE, 5-HT Uptake ([3H]-paroxetin)
[2] = rat prefrontal cortex, 20 min, 37° C., IN (10^−6M) where no Ki is given

T2 sequence (P31652 whole entry): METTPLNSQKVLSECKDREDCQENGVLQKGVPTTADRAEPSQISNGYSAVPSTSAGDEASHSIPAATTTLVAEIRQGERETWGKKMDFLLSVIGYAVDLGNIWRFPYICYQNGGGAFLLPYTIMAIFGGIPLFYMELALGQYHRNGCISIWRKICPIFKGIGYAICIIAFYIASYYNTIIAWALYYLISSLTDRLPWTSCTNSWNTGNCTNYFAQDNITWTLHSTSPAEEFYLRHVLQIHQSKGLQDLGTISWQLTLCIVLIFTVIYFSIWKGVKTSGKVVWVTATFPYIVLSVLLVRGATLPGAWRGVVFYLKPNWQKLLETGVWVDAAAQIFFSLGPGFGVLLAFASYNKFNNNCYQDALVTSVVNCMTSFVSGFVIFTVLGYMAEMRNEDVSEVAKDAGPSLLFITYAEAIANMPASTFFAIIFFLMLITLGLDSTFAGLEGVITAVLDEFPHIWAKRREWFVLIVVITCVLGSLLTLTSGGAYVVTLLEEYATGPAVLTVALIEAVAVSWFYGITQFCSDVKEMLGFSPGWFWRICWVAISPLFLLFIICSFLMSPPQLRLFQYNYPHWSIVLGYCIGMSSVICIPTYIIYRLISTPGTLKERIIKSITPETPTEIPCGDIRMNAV
T4 sequence (P14842 whole entry): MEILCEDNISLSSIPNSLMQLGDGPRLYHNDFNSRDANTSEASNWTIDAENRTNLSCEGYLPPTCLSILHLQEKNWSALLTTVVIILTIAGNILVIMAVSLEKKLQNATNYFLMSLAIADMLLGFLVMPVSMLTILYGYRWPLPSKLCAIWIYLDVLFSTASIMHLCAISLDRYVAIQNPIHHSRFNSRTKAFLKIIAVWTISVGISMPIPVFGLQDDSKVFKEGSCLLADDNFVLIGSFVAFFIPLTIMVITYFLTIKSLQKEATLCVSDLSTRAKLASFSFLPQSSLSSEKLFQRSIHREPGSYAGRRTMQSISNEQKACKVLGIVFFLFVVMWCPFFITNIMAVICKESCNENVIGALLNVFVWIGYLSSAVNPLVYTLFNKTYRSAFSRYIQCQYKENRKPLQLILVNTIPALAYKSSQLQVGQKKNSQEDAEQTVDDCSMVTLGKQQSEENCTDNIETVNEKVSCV

| Compound | Ki ± SE, 5-HT1A Subtype ([3H]-8OH-DPAT) (5-HT1A receptors) | melting point [°C] | Ki (serotonin uptake site; [1]) [nM] | Ki (5-HT3 receptors) [nM] | Ki ± SE, 5-HT2A Subtype ([3R]-ketanserine) (5-HT2A Subtype; [2]) | also measured |
| --- | --- | --- | --- | --- | --- | --- |
| CN1[C@@H]2CC[C@H]1C[C@@H](N1Cc3cnc4ccccc4c3C1=O)C2 [Compound 2, endo-2-[8-methyl-8-azadicyclo[3.2.1]oct-3-yl]-2,3-dihydro-1H-pyrrolo[3,4-c]quinolin-1-one] | IN (10^−6M) | 153 to 154 | 503 ± 86 | 1.3 ± 0.2 | IN (10^−6M) | – |
| c1ccc2nc(N3CCNCC3)ccc2c1 [quipazine, reference compound] | – | – | 31.3 ± 2.9 | – | – | Ki (5-HT2A Subtype; [2]): 1810 ± 476 nM |
| O=C1c2c(ccc3ccccc23)CN1[C@@H]1CN2CCC1CC2 [Compound 7, (S)-2-[1-azadicyclo[2.2.2]oct-3-yl]-2,3-dihydro-1H-benz[e]isoindol-1-one] | – | 152 to 154 | – | 0.3 ± 0.09 | – | affinity for the 5-HT3 receptor (in words) (5-HT3 receptors): sub-nanomolar |
| CN1[C@@H]2CC[C@H]1C[C@@H](N1Cc3nc4ccccc4cc3C1=O)C2 [Compound 11, endo-2-[8-methyl-8-azadicyclo[3.2.1]oct-3-yl]-2,3-dihydro-1H-pyrrolo[3,4-b]quinolin-1-one, reference compound] | – | – | – | 87 ± 37 | – | less active than Compound 2 at the 5HT3 receptor (5-HT3 receptors; relative to Compound 2): approximately 60 times |
| O=[N+]([O-])c1ccc2nc(N3CCNCC3)ccc2c1 [6-NO2-quipazine, reference compound] | – | – | 0.12 ± 0.01 | – | – | – |
| CN1[C@@H]2CC[C@H]1C[C@@H](N1Cc3c(O)nc4ccccc4c3C1=O)C2 [Compound 5, endo-2-[8-methyl-8-azadicyclo[3.2.1]oct-3-yl]-2,3-dihydro-4-hydroxy-1H-pyrrolo[3,4-c]quinolin-1-one] | IN (10^−6M) | 245 to 246 | 485 ± 37 | 0.9 ± 0.06 | IN (10^−6M) | – |
| CN1[C@@H]2CC[C@H]1C[C@H](N1Cc3ccc4ccccc4c3C1=O)C2 [Compound 10, reference compound] | – | – | – | 85.5 ± 16 | – | less active than Compound 1 at the 5HT3 receptor (5-HT3 receptors; relative to Compound 1): ~2 orders of logarithmic magnitude |
| O=C1c2c(ccc3ccccc23)CN1[C@H]1CN2CCC1CC2 [Compound 8, (R)-2-[1-azadicyclo[2.2.2]oct-3-yl]-2,3-dihydro-1H-benz[e]isoindol-1-one] | – | 155 to 157 | – | 1.8 ± 0.5 | – | – |
| O=C1c2c(cnc3ccccc23)CN1C1CN2CCC1CC2 (racemic) [Compound 9, (R,S)-2-[1-azadicyclo[2.2.2]oct-3-yl]-2,3-dihydro-1H-pyrrolo[3,4-c]quinolin-1-one] | IN (10^−6M) | – | 124 ± 22 | 1.6 ± 0.6 | IN (10^−6M) | – |
| CN1[C@@H]2CC[C@H]1C[C@@H](N1Cc3c(Cl)nc4ccccc4c3C1=O)C2 [Compound 3, endo-2-[8-methyl-8-azadicyclo[3.2.1]oct-3-yl]-2,3-dihydro-4-chloro-1H-pyrrolo[3,4-c]quinolin-1-one] | IN (10^−6M) | 169 to 171 | 175 ± 30 | 2.6 ± 0.4 | IN (10^−6M) | – |
| CCCOc1nc2ccccc2c2c1CN(C1CC3CCC(C1)N3C)C2=O (stereo not drawn) [Compound 4, endo-2-[8-methyl-8-azadicyclo[3.2.1]oct-3-yl]-2,3-dihydro-4-propoxy-1H-pyrrolo[3,4-c]quinolin-1-one] | IN (10^−6M) | 170 to 171 | 108 ± 15 | 0.7 ± 0.2 | IN (10^−6M) | – |
| O=C1c2c(ccc3ccccc23)CN1C1CN2CCC1CC2 (racemic) [Compound 6, (R,S)-2-[1-azadicyclo[2.2.2]oct-3-yl]-2,3-dihydro-1H-benz[e]isoindol-1-one] | IN (10^−6M) | 153 to 154 | – | 0.7 ± 0.08 | – | Ki (serotonin uptake site): 95.8 ± 9.6 nM; Ki (5-HT2A Subtype): 26500 ± 8700 nM |
| CN1[C@@H]2CC[C@H]1C[C@@H](N1Cc3ccc4ccccc4c3C1=O)C2 [Compound 1] | – | – | 632 ± 51 | 1 ± 0.2 | – | Ki (5-HT1A receptors; read-out: Ki ± SE, 5-HT1A Subtype ([3H]-8OH-DPAT)): 30600 ± 6460 nM; Ki (5-HT2A Subtype): 21100 ± 2300 nM |
